Measured values reported in patent US20030021795A1, “Use of coiled-coil structural scaffold to generate structure-specific peptides” (priority 2000, published 2003).
Read-outs that look alike come from different tables or passages of the source. Square brackets hold non-standard residues; d marks the D form. Ends that are not written are not given here. Nle = CCCC[C@H](N)C(=O)O

Assays:
[1] = CD spectroscopy (helical content/conformation of peptides); format: physicochemical; conditions: for conformation by CD in benign buffer: benign buffer (50 mM KH2PO4, 50 mM KCl, pH 7.0), absence of TFE
Description: Circular dichroism (CD) spectroscopy was performed using a Jasco J-500C spectropolarimeter (Jasco, Easton, Md.) equipped with a Jasco DP-500N data processor. A 10-fold dilution of an ˜[…] stock solution of the disulfide-linked peptide was loaded into a 0.02 cm fused silica cell and ellipticity scanned from 190 to 250 nm. […] A Lauda water bath (model RMS, Brinkmann Instruments, Rexdale, Ont.) was used to control the temperature of the cell. CD spectra were the average of four scans obtained by collecting data at 0.1 nm intervals from 250 to 190 nm.

anti-Strep serum = format: binding, mouse
[2] = Thermal denaturation monitored by [θ]222; format: physicochemical
Excerpt: The stability of the peptides may be determined by thermal denaturation assays or chemical denaturation assays such as the guanidine chloride denaturation assay. Such assays are known to those skilled in the art. The stability of the peptides may also be indirectly assessed by inhibition ELISA, wherein the ability of a peptide to inhibit the interaction between an antigen and an antibody serves as an indicator of how stable the peptide is in assuming the necessary conformation to compete with the antigen for the antibody.
In order to determine the stability of CVX0270, a thermal denaturation study was undertaken.

[3] = system: Streptococcus pneumoniae serotype 1; format: cell-based; conditions: antiserum Day 49; immunogen dose 20 μg
[4] = system: Streptococcus pneumoniae serotypes (1, 3, and 5); test: Opsonization assay with antiserum; format: cell-based
[5] = system: Coiled-Coil Strep Antigen; test: Isotyping ELISA of mouse serum antibodies after i.p. immunization; format: in vivo, Balb/c mice; conditions: immunogen dose 20 μg
[6] = system: Streptococcus pneumoniae serotype 5; format: cell-based; conditions: antiserum Day 49; immunogen dose 20 μg
[7] = system: Streptococcus pneumoniae serotype 3; format: cell-based; conditions: antiserum Day 49; immunogen dose 20 μg
[8] = system: Coiled-Coil Strep Antigen (Strep-BSA coating antigen); format: in vivo, Balb/c mice; conditions: for Murine Sera (Day 49) OD 405 nm, Strep-BSA coating antigen: immunogen dose 20 μg

Substance: Acetyl-CN1eGEIEALKKKIEELSDKIDELEKEIK-amide [CVX0270]
- ratio of the molar ellipticity at 222 and 208 ([θ]222/[θ]208) ([1]; benign conditions): greater than 1.02
- conformation by CD under aqueous conditions ([1]; benign conditions (50 mM KH2PO4, 100 mM KCl, pH 7.0)): highly helical and found predominantly in the coiled-coil conformation
- molar ellipticity at 222 nm ([θ]222) ([1]; benign conditions (50 mM KH2PO4, 100 mM KCl, pH 7.0), 20° C.): −29800
- helical content ([1]; benign conditions (50 mM KH2PO4, 100 mM KCl, pH 7.0), 20° C., versus theoretical [θ]222 −33900): 88%
- helical content ([1]; in the presence of 50% TFE): 101%
- inhibition of anti-Strep serum binding (inhibition ELISA) (anti-Strep serum): significant inhibition
- stability in thermal denaturation experiment [2]: very stable
- % of original helicity retained ([2]; at 75° C.): 77%

Substance: CN1eG IEELEKK ITELKQK IDALENQ IHRLEQE IKELDES (C[Nle]GIEELEKKITELKQKIDALENQIHRLEQEIKELDES) [test peptide]
- conformation by CD in benign buffer [1]: exists in helical form even in benign buffer
- stability in thermal denaturation experiment [2]: much more stable than the native control

Substance: CN1eG LEEAEKK ATEAKQK VDALENQ VHRLEQE LKEIDES (C[Nle]GLEEAEKKATEAKQKVDALENQVHRLEQELKEIDES) [native control]
- conformation by CD in benign buffer [1]: needs the presence of TFE to form a helical structure

Substance: EEESDKKDEEDAEKAE [Strep #2]
- inhibition of anti-Strep serum binding (inhibition ELISA) (anti-Strep serum): no inhibition

Substance: EIEALKKKIEELSDKIDELEKEIK [Strep #1]
- inhibition of anti-Strep serum binding (inhibition ELISA) (anti-Strep serum): Inhibition was also seen

Substance: TT: unconjugated tetanus toxoid carrier protein
- Percent Reduction of CFU Type 1 [3]: 7%
- reduction in colony forming units by antisera [4]: Little or no reduction in colony forming units
- Isotype IgG1 ([5]; sera day 6): 0.06 O.D. 405 nm
- Isotype IgG2a ([5]; sera day 6): 0.02 O.D. 405 nm
- Isotype IgG2b ([5]; sera day 6): 0.01 O.D. 405 nm
- Isotype IgG3 ([5]; sera day 6): 0.01 O.D. 405 nm
- Isotype IgG1 ([5]; sera day 14): 0.05 O.D. 405 nm
- Isotype IgG2a ([5]; sera day 14): 0.00 O.D. 405 nm
- Isotype IgG2b ([5]; sera day 14): 0.00 O.D. 405 nm
- Isotype IgG3 ([5]; sera day 14): 0.01 O.D. 405 nm
- Isotype IgG1 ([5]; sera day 35): 0.08 O.D. 405 nm
- Isotype IgG2a ([5]; sera day 35): 0.01 O.D. 405 nm
- Isotype IgG2b ([5]; sera day 35): 0.01 O.D. 405 nm
- Isotype IgG3 ([5]; sera day 35): 0.01 O.D. 405 nm
- Isotype IgG1 ([5]; sera day 49): 0.44 O.D. 405 nm
- Isotype IgG2a ([5]; sera day 49): 0.03 O.D. 405 nm
- Isotype IgG2b ([5]; sera day 49): 0.02 O.D. 405 nm
- Isotype IgG3 ([5]; sera day 49): 0.05 O.D. 405 nm
- Percent Reduction of CFU Type 5 [6]: 7%
- Percent Reduction of CFU Type 3 [7]: 6%
- antibody titers to the Strep hapten ([8]; 20 μg, 10 μg and 5 μg doses): did not elicit any antibodies
- Murine Sera (Day 49) OD 405 nm, Strep-BSA coating antigen ([8]; serum dilution 1:2000): 0.11 OD 405 nm
- Murine Sera (Day 49) OD 405 nm, Strep-BSA coating antigen ([8]; serum dilution 1:4000): 0.04 OD 405 nm
- Murine Sera (Day 49) OD 405 nm, Strep-BSA coating antigen ([8]; serum dilution 1:8000): 0.01 OD 405 nm
- Murine Sera (Day 49) OD 405 nm, Strep-BSA coating antigen ([8]; serum dilution 1:16000): 0.06 OD 405 nm
- Murine Sera (Day 49) OD 405 nm, Strep-BSA coating antigen ([8]; serum dilution 1:32000): 0.00 OD 405 nm
- Murine Sera (Day 49) OD 405 nm, Strep-BSA coating antigen ([8]; serum dilution 1:64000): 0.00 OD 405 nm
- Murine Sera (Day 49) OD 405 nm, Strep-BSA coating antigen ([8]; serum dilution 1:128000): 0.00 OD 405 nm
- Murine Sera (Day 49) OD 405 nm, Strep-BSA coating antigen ([8]; serum dilution 1:256000): 0.00 OD 405 nm
